Measured values from PubChem BioAssay AID1963428 (Molecular Pharmacology Branch, DTP, NCI, 2024).
“And” between values parts separate entries of the source, which are not always exact repeats. Identical values can stand only once.

Test system: 171881-019-R-J1-PDC complex spheroid growth, % test/control
Test: Anticancer human tumor 171881-019-R-J1-PDC patient-derived invasive breast carcinoma cell line growth inhibition [Asc]
Conditions: for viability, T/C: stronger effect = lower value
Procedure: Multicellular complex tumor spheroid response to apoptosis pathway targeting inhibitors Alrizomadlin, Pelcitoclax, and Dasminapant in combination with a variety of drugs and investigational agents in selected tumor cell lines
The MDM2 inhibitor alrizomadlin, the Bcl-2/Bcl-xL inhibitor pelcitoclax, and the IAPs inhibitor dasminapant were evaluated both individually and in combination with standard of care and investigational anticancer small molecules within a complex spheroid model of solid tumors. . Complex spheroids include a stromal component modeled by human endothelial cells (HUVEC) and fibroblasts modeled by human mesenchymal stem cells (MSCs). The concentration ranges selected for each drug and investigational agent were based upon clinically achievable concentrations if the clinical Cmax of the agent was known.
Compounds. The drugs and investigational agents: alrizomadlin (APG-115; NSC831270), pelcitoclax (APG-1252; NSC835773), dasminapant (APG-1387;NSC834197), TAK-243 (NSC785004), copanlisib (NSC809693), olaparib (NSC753686), talazoparib (NSC767125), cobimetinib (NSC 768068), eltanexor (KPT-8602, NSC 794443), abemaciclib (NSC 768073), sotorasib (NSC818433), adagrasib (NSC 831453), MRTX-1133 (NSC 836407), Iadademestat (ORY1001, NSC 806812), and RMC-4630 (NSC839698), were obtained from the NCI Developmental Therapeutics Program Chemical Repository. The FDA-approved anticancer drug set is available from the Developmental Therapeutics Program at https://dtp.cancer.gov/organization/dscb/obtaining/available plates.htm. […] The stock solutions were prepared in dimethyl sulfoxide (DMSO, Sigma-Aldrich, St. Louis, MO, cat. D2650) at 800-fold the tested concentration and stored at -70 degrees C prior to their use. All drugs and investigational agents were tested over a range starting from a high concentration at or near the clinical Cmax and decreasing in half-log increments. If the clinical Cmax for an agent had not been determined, the highest concentration tested was 10 microM.
The patient-derived cancer (PDC) cell lines include five colon adenocarcinomas: 186277-243-T-J2-PDC, 616215-338-R-J1-PDC, 439559-082-T-J2-PDC, 463943-066-T-J2-PDC, and 519858-162-T-J1-PDC; three pancreatic carcinomas: 323965-272-R-J2-PDC, 521955-158-R6-J3-PDC, and 521955-158-R2-J5-PDC; two uterine sarcomas: 327498-152-R-J2-PDC and 993429-296-R-J1-PDC; two rhabdomyosarcomas: 755483-174-R-J1-PDC and 772245-204-R-J1-PDC; two soft tissue sarcomas: 126254-015-R-J1-PDC and 494315-158-R-J1-PDC; two malignant fibrous histiocytomas: 317291-083-R-J1-PDC and 596521-263-R-J1-PDC; two breast carcinomas: 171881-019-R-J1-PDC and 885512-296-R-J2-PDC; and one ovarian carcinoma: 6556581-035-R-J-PDC were obtained from the NCI PDMR, (https://pdmr.cancer.gov). The established cell lines HSSY-2 synovial sarcoma (RRID:CVCL 8719), SYO-1 synovial sarcoma (RRID:CVCL_7146), MPNST malignant peripheral neural sheath tumor were obtained from the Sloan Kettering Institute. The following established cell lines were purchased from the American Type Culture Collection (ATCC, Manassas, VA), Sor the received from the NCI repository:, PANC-1 pancreatic carcinoma (CRL-1469, RRID:CVCL_0480), OVCAR-5 ovarian carcinoma (RRID:CVCL_1628), OVCAR-8 ovarian carcinoma (RRID:CVCL_1629), , MCF-7 breast carcinoma (CRL-12584, RRID:CVCL_0031), MDA-MB-231 breast carcinoma (CRL-12532, RRID:CVCL_0062), NCI-H1876 small cell lung carcinoma (CRL-5902, RRID:CVCL_1503), NCI-H510A small cell lung carcinoma (HTB-184, RRID:CVCL_1565), NCI-H1417 (CRL-5869, RRID:CVCL_1469), and NCI-H196 small cell lung carcinoma (CRL-5823, RRID:CVCL_1509). Dr. Peter Houghton (Greehey Children's Cancer Research Institute, University of Texas Health Science Center, San Antonio, TX) provided Rh-18 rhabdomyosarcoma (RRID:CVCL_1659). Pooled donor human umbilical vein endothelial cells (HUVEC, Lonza, cat. CC-2519) and human mesenchymal stem cells (hMSC, Lonza, cat. PT-2501) were purchased from Lonza (Walkersville, MD).
Cell Culture. […]

[1] = compound alone, run of 09/27/2022
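Wherever viability, T/C is given: spheroids exposed to compounds for 7 days.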

Structure (SMILES): C#Cc1c(F)ccc2cc(O)cc(-c3ncc4c(N5CC6CCC(C5)N6)nc(OCC56CCCN5CC(F)C6)nc4c3F)c12 (configuration not stated)
- viability, T/C (compound 0.0316 µM): 105% and 82.7% and 103%
- viability, T/C (compound 0.1 µM): 107% and 98% and 102%
- viability, T/C (compound 0.316 µM): 129% and 115% and 117%
- viability, T/C (compound 1 µM): 229% and 139% and 208%
- viability, T/C (compound 3.16 µM): 271% and 153% and 240%
- viability, T/C (compound 10 µM): 281% and 162% and 190%
- IC50 (curve of compound): > 10000 nM

Structure (SMILES): C=C(F)C(=O)N1CCN(c2nc(OCC3CCCN3C)nc3c2CCN(c2cccc4cccc(Cl)c24)C3)CC1CC#N (configuration not stated)
- viability, T/C (compound 0.0316 µM): 85.9% and 113% and 104%
- viability, T/C (compound 0.1 µM): 86% and 98.9% and 99.5%
- viability, T/C (compound 0.316 µM): 116% and 99.8% and 93.9%
- viability, T/C (compound 1 µM): 82.4% and 111% and 84.5%
- viability, T/C (compound 3.16 µM): 98.7% and 103% and 95.5%
- viability, T/C (compound 10 µM): 0.42% and 0.28% and 0.66%
- IC50 (curve of compound): 5430 nM and 5720 nM and 5490 nM

Structure (SMILES): C=CC(=O)N1CCN(c2nc(=O)n(-c3c(C)ccnc3C(C)C)c3nc(-c4c(O)cccc4F)c(F)cc23)C(C)C1 (configuration not stated)
- viability, T/C (compound 0.0316 µM): 94.2% and 93.7% and 99.4%
- viability, T/C (compound 0.1 µM): 95.4% and 109% and 106%
- viability, T/C (compound 0.316 µM): 90.9% and 107% and 99.9%
- viability, T/C (compound 1 µM): 89.2% and 92.1% and 88.4%
- viability, T/C (compound 3.16 µM): 80.5% and 93.2% and 83.7%
- viability, T/C (compound 10 µM): 71.1% and 78.1% and 83.2%
- IC50 (curve of compound): > 10000 nM

Structure (SMILES): CCN1C(C(=O)NC23CCC(C(=O)O)(CC2)CC3)C(c2cccc(Cl)c2F)C2(C(=O)Nc3cc(Cl)ccc32)C12CCCCC2 (configuration not stated)
- viability, T/C (compound 0.00949 µM): 76.5% and 112%
- IC50 [1]: > 3000 nM
- IC50 (curve of compound): > 3000 nM

Structure (SMILES): CCN1CCN(Cc2ccc(Nc3ncc(F)c(-c4cc(F)c5nc(C)n(C(C)C)c5c4)n3)nc2)CC1
- viability, T/C (compound 0.00316 µM): 97.1% and 108% and 114%
- viability, T/C (compound 0.01 µM): 79.1% and 101% (2×)
- viability, T/C (compound 0.0316 µM): 97.8% and 111% and 105%
- viability, T/C (compound 0.1 µM): 109% and 104% and 128%
- viability, T/C (compound 0.316 µM): 110% and 120% and 131%
- viability, T/C (compound 1 µM): 130% and 141% and 128%
- IC50 (curve of compound): > 1000 nM

Structure (SMILES): CNC(C)C(=O)NC1CN(S(=O)(=O)c2cccc(S(=O)(=O)N3CCC4CCC(C(=O)NC(c5ccccc5)c5ccccc5)N4C(=O)C(NC(=O)C(C)NC)C3)c2)CCC2CCC(C(=O)NC(c3ccccc3)c3ccccc3)N2C1=O (configuration not stated)
- viability, T/C (compound 0.00316 µM): 102% and 97.8%
- viability, T/C (compound 0.1 µM): 95.1% [middle of 15 runs]
- IC50 (compound alone, run of 10/03/2022): > 1000 nM
- IC50 (curve of compound): > 1000 nM

Structure (SMILES): COc1c(OCCCN2CCOCC2)ccc2c3n(c(=NC(=O)c4cnc(N)nc4)nc12)CCN3
- viability, T/C (compound 0.00316 µM): 148% and 152% and 226%
- viability, T/C (compound 0.01 µM): 115% and 134% and 153%
- viability, T/C (compound 0.0316 µM): 50.5% and 46.9% and 61.2%
- viability, T/C (compound 0.1 µM): 17.4% and 14.1% and 19.9%
- viability, T/C (compound 0.316 µM): 3.09% and 3.26% and 4.21%
- viability, T/C (compound 1 µM): 1.31% and 1.02% and 4.37%
- IC50 (curve of compound): 33.9 nM and 30.9 nM and 24.8 nM

Structure (SMILES): Cc1c(S(C)(=O)=O)c(-c2cc(F)cc(N3CCN(c4ccc(NS(=O)(=O)c5ccc(NC(CCN6CCC(C(=O)OCCCP(=O)(O)O)CC6)CSc6ccccc6)c(S(=O)(=O)C(F)(F)F)c5)cc4)CC3)c2)c(-c2ccc(Cl)cc2)n1C(C)C (configuration not stated)
- viability, T/C (compound 0.1 µM): 98.9% [middle of 14 runs]
- viability, T/C (compound 10 µM): 175% [middle of 14 runs]
- IC50 [1]: > 10000 nM

Structure (SMILES): Cc1nc(N2CCC3(CC2)COC(C)C3N)c(CO)nc1Sc1ccnc(N)c1Cl (configuration not stated)
- viability, T/C (compound 0.00949 µM): 123% and 94.5% and 97.3%
- viability, T/C (compound 0.03 µM): 137% and 100% and 92%
- viability, T/C (compound 0.0949 µM): 214% and 125% and 157%
- viability, T/C (compound 0.3 µM): 268% and 160% and 188%
- viability, T/C (compound 0.949 µM): 225% and 150% and 152%
- viability, T/C (compound 3 µM): 168% and 117% (2×)
- IC50 (curve of compound): > 3000 nM

Structure (SMILES): Cn1ncnc1[C@H]1c2n[nH]c(=O)c3cc(F)cc(c23)N[C@@H]1c1ccc(F)cc1
- viability, T/C (compound 0.000316 µM): 81.3% and 100% and 94.1%
- viability, T/C (compound 0.001 µM): 86.7% and 107% and 93%
- viability, T/C (compound 0.00316 µM): 90% and 88.5% and 79.2%
- viability, T/C (compound 0.01 µM): 92.8% and 101% and 84.1%
- viability, T/C (compound 0.0316 µM): 86.6% and 86.8% and 99.6%
- viability, T/C (compound 0.1 µM): 91.4% and 81% and 106%
- IC50 (curve of compound): > 100 nM

Structure (SMILES): NC(=O)C(=Cn1cnc(-c2cc(C(F)(F)F)cc(C(F)(F)F)c2)n1)c1cncnc1
- viability, T/C (compound 0.000949 µM): 83.2% and 95.6% and 98.7%
- viability, T/C (compound 0.003 µM): 90.3% and 107% and 115%
- viability, T/C (compound 0.00949 µM): 73.5% and 95.6% and 128%
- viability, T/C (compound 0.03 µM): 44.2% and 56.6% and 124%
- viability, T/C (compound 0.0949 µM): 7.59% and 10.6% and 19.6%
- viability, T/C (compound 0.3 µM): 2.48% and 3.46% and 4.69%
- IC50 (curve of compound): 23.4 nM and 35.4 nM and 66.1 nM

Structure (SMILES): NC1CCC(NC2CC2c2ccccc2)CC1 (configuration not stated)
- viability, T/C (compound 0.000316 µM): 97.1% and 106% and 92%
- viability, T/C (compound 0.001 µM): 87.7% and 98.6% and 88.7%
- viability, T/C (compound 0.00316 µM): 94.6% and 94.2% and 80.9%
- viability, T/C (compound 0.01 µM): 92.8% and 95.6% and 87.6%
- viability, T/C (compound 0.0316 µM): 76.2% and 94.8% and 77.5%
- viability, T/C (compound 0.1 µM): 75.7% and 109% and 79.7%
- IC50 (curve of compound): > 100 nM

Structure (SMILES): O=C(c1cc(Cc2n[nH]c(=O)c3ccccc23)ccc1F)N1CCN(C(=O)C2CC2)CC1
- viability, T/C (compound 0.0316 µM): 88.5% and 96.6% and 106%
- viability, T/C (compound 0.1 µM): 90.8% and 103% and 111%
- viability, T/C (compound 0.316 µM): 93.1% and 101% and 107%
- viability, T/C (compound 1 µM): 95.5% and 86% and 102%
- viability, T/C (compound 3.16 µM): 87.9% and 87.8% and 107%
- viability, T/C (compound 10 µM): 92.6% and 79.8% and 122%
- IC50 (curve of compound): > 10000 nM

Structure (SMILES): O=C(c1ccc(F)c(F)c1Nc1ccc(I)cc1F)N1CC(O)([C@@H]2CCCCN2)C1
- viability, T/C (compound 0.00316 µM): 86.7% and 86.1% and 88.1%
- viability, T/C (compound 0.01 µM): 104% and 85.4% and 111%
- viability, T/C (compound 0.0316 µM): 121% and 111% and 153%
- viability, T/C (compound 0.1 µM): 150% and 136% and 218%
- viability, T/C (compound 0.316 µM): 65.5% and 51.4% and 121%
- viability, T/C (compound 1 µM): 32.6% and 32.5% and 58.2%
- IC50 (curve of compound): 545 nM and 344 nM and > 1000 nM
